# Paper PMC8129988 (Inorganic Chemistry Frontiers, 2021)
# Experiments:
# cyclic voltammetry = format: physicochemical; conditions: DMF, 0.2 M [n-Bu4N][BF4], 1.5 mM complex, scan rate 100 mV s^-1
# Method: Since the redox potential is a crucial characteristic for the activation of cobalt(III)-based prodrugs systems, we investigated the novel complexes by cyclic voltammetry in comparison to Co(acac)2LEGFR. Measurements were performed in dimethylformamide (DMF) (+0.2 M [n-Bu4N][BF4]) at a scan speed of 100 mV s^−1. […] Even at a higher scan speed of 1000 mV s^−1, the redox processes were still completely irreversible for all complexes (Fig. S5 ^†).
# The compounds were dissolved in DMF (+0.2 M [n-Bu4N][BF4]) to obtain a final concentration of 1.5 mM. Electrochemical experiments were conducted on an EG&G PARC 273A potentiostat/galvanostat with a scan rate of 100–1000 mV s^−1 at room temperature. Argon was bubbled through the solution before every measurement to remove oxygen. A three-electrode configuration cell was used with a glassy carbon electrode as working electrode, which was polished before every measurement. The reference electrode was Ag/Ag^+/ACN (10 mM AgNO3) and the auxiliary electrode was a platinum wire. The potentials were referenced to an internal standard redox couple of ferrocenium/ferrocene and calculated to the NHE (E1/2 = +0.72 V vs. NHE).[63] […] Redox potentials measured relative to the Ag/AgCl/KCl (3.5 M) reference electrode and converted to the NHE using +0.205 V. Measurements were at least repeated three times and the mean values were calculated.
# [1] = serum stability in fetal calf serum (HPLC-MS); format: in vitro ADME; conditions: 37 °C
# Method: Therefore, we only investigated the stability of the novel complexes in fetal calf serum (FCS). As reference again Co(acac)2LEGFR[26] was included. The complexes were dissolved in 50 mM phosphate puffer and mixed 1 : 10 with fetal calf serum (FCS; buffered with 150 mM phosphate buffer to keep a stable pH of 7.4) to a final concentration of 50 μM. The samples were incubated at 37 °C and after 0, 2, 4, 6, 24 and 26 h extracted with acetonitrile and measured by HPLC-MS. […] This indeed confirms, that by avoiding the direct attachment of the ethylenediamine moiety to an aromatic ring system, complexes with much higher stability can be generated. Since no distinct difference in stability between Co(acac)2LPon and Co(Meacac)2LPon within 26 h could be observed, measurements were repeated up to 72 h.
# For serum stability measurements, 135 μL FCS, buffered with 150 mM phosphate (Na2HPO4/NaH2PO4) to maintain a pH value of 7.4, were mixed with 15 μL of a 500 μM stock solution of the respective complex in 50 mM phosphate buffer to reach a final concentration of 50 μM. The samples were incubated at 37 °C. At different time points to 20 μL serum 40 μL of ACN were added. After vigorously shaking for 2 min the suspension was centrifuged at 6000 rpm for 10 min. The supernatant was taken with a syringe and directly measured via HPLC-MS. The samples were analyzed on an Agilent 1260 Infinity system using a Waters Atlantis T3 column (150 mm × 4.6 mm) coupled to a Bruker Amazon SL ESI-IT mass spectrometer. Water and acetonitrile (both containing 0.1% formic acid) were used as eluents with a gradient of 1–99% acetonitrile within 29 min.
# [2] = tested on: p-ERK1/2 and p-S6 in K-562 cells; test: western blot of downstream signalling, 12 h; format: cell-based, human; conditions: hypoxic conditions, K-562, 12 h
# Method: Fig. 10 Impact of the cobalt(III) complexes on the ERK1/2 and S6 under normoxic and hypoxic conditions. K-562 cells were treated with the compounds, after 12 h cell lysates were prepared and protein expression as well as phosphorylation levels of downstream pathways (p-ERK1/2 and p-S6) analyzed by western blotting. One representative experiment out of three is shown. The ratio of phosphorylated to total protein is given between the respective lanes.
# K-562 cells were plated (5 × 10^5 cells per well) in 6-well plates and allowed to recover for 24 h. Subsequently, the cells were treated with the drugs in different concentrations. After 12 h cells were harvested, proteins were isolated, resolved by sodium dodecyl sulfate polyacrylamide gel electrophoresis (SDS/PAGE), and transferred onto a polyvinylidene difluoride membrane for western blotting. The following antibodies were used: ERK1/2 (p44/42) rabbit monoclonal antibody (mAb) (137F5, #4695), phospho-ERK1/2 rabbit mAb (Thr202/Tyr204) (20G11, #4376), phospho-S6 rabbit pAb (Ser240/244, #2215) (Cell Signaling Technology, Beverly, MA, USA), S6 mouse mAb (C-8. #sc-74459) (Santa Cruz Biotechnology, TX, USA) and β-actin mouse mAb (#A5441, Sigma). All primary antibodies were used in 1 : 1000 dilutions (in Tris-buffered saline containing 0.1% Tween20 (TBST) + 3% bovine serum albumin (BSA)). Secondary goat anti-mouse-IgG (Fc specific)-peroxidase antibody (#A0168, Sigma) and horseradish peroxidase(HRP)-labeled mouse anti-rabbit IgG (#sc-2357, Santa Cruz Biotechnology) were used at working dilutions of 1 : 10 000 (in TBST + 1% BSA).
smiles,measurement,setting,value
"CC(=O)C=C(C)[O-].CC(=O)C=C(C)[O-].Cc1ccc(C(=O)Nc2ccc(CNCCN)c(C(F)(F)F)c2)cc1C#Cc1cnc2cccnn12.O=C(O)C(F)(F)F.[Co+3] [Co(acac)2LPon, Bis(2,4-pentanedionato)N-(4-(((2-aminoethyl)amino)methyl)-3-(trifluoromethyl)phenyl)-3-(imidazo[1,2-b]pyridazin-3-ylethynyl)-4-methylbenzamide cobalt(III) 2,2,2-trifluoroacetate]","cathodic peak potential (Co(III) to Co(II), irreversible)",cyclic voltammetry,−315 mV vs. NHE
same,intact complex remaining in FCS,"[1]; 26 h, pH 7.4, 50 μM",~90%
same,intact compound remaining in FCS,"[1]; 72 h, pH 7.4",~70%
same,activity on S6 phosphorylation compared with ponatinib,[2],equally active as compared to ponatinib
